Reference: patent publication US10246451B2, “Propionic acid derivatives and methods of use thereof” (Aviara Pharmaceuticals, Inc., priority 2017, dated 2019)
pIC50: −log10 of the molar value.

biological target: α4β1 integrin (Homo sapiens, UniProt P05556+P13612); test: a4b1 IC50 (inhibition of α4β1 integrin; no method described); format: binding
Sequence (P13612 34-1032): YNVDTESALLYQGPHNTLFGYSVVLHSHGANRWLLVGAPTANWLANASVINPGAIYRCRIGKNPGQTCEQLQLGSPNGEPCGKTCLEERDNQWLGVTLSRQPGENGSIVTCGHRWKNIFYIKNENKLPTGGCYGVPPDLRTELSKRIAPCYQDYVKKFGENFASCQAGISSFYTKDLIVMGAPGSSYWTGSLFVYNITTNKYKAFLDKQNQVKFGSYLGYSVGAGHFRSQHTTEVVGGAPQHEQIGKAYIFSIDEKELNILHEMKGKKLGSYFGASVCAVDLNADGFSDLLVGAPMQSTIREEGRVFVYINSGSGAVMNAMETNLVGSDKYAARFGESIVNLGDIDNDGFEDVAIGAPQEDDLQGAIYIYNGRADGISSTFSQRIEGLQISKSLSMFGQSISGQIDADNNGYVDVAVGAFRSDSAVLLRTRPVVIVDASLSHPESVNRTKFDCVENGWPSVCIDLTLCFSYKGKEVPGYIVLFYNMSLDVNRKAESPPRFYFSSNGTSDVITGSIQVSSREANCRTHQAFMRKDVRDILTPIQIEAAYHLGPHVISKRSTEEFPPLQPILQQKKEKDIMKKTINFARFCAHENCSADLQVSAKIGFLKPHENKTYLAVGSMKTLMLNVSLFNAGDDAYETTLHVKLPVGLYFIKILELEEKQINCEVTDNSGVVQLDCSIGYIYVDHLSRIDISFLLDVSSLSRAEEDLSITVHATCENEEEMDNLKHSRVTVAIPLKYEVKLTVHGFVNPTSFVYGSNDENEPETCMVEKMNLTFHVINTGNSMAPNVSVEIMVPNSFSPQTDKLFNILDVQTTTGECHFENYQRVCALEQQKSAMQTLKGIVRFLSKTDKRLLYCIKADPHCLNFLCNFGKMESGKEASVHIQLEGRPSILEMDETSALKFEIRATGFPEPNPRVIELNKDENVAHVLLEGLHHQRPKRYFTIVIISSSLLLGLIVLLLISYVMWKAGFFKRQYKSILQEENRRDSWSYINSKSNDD
Sequence (P05556 21-798): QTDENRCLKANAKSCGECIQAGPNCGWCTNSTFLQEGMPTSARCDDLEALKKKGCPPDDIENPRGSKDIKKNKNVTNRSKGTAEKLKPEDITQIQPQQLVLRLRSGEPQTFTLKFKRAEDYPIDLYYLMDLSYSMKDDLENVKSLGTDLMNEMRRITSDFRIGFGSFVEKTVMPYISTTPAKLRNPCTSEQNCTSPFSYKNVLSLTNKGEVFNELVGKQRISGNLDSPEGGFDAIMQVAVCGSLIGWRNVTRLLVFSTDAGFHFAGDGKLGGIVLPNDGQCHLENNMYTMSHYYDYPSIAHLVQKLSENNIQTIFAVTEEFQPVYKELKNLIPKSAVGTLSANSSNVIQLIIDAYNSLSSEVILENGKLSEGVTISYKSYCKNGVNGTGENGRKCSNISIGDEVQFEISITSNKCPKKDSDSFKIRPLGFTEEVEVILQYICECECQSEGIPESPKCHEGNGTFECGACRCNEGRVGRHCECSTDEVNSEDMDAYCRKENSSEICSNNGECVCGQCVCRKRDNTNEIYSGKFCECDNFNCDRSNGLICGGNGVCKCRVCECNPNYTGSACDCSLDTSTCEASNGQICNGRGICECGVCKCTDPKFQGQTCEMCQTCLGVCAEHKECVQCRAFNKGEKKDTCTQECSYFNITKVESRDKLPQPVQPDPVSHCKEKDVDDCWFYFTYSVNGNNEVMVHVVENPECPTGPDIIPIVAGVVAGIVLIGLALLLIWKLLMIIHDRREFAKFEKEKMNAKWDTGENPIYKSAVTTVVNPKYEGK

SMILES	pIC50
Cc1cn(C)c(=O)c(NC(=O)NC(CC(=O)O)c2cccc(Oc3ccccc3)c2)c1O (stereo not drawn) [Compound 1-21, sodium 3-(3-(1,5-dimethyl-4-oxido-2-oxo-1,2-dihydropyridin-3-yl)ureido)-3-(3-phenoxyphenyl)propanoate]	> 6.70
Cc1cn(C)c(=O)c(NC(=O)N[C@@H](CC(=O)O)c2cccc(Oc3ccccc3)c2)c1O [Compound 1-22, sodium (S)-3-(3-(1,5-dimethyl-4-oxido-2-oxo-1,2-dihydropyridin-3-yl)ureido)-3-(3-phenoxyphenyl)propanoate]	> 6.70
Cc1cn(C)c(=O)c(NC(=O)N[C@@H](CC(=O)O)c2cccc(Cc3ccccc3)c2)c1O [Compound 1-23, sodium (S)-3-(3-benzylphenyl)-3-(3-(1,5-dimethyl-4-oxido-2-oxo-1,2-dihydropyridin-3-yl)ureido)propanoate]	> 6.70
Cc1cn(C)c(=O)c(NC(=O)NC(CC(=O)O)c2cccc(Cc3ccccc3Cl)c2)c1O (stereo not drawn) [Compound 1-24, sodium 3-(3-(2-chlorobenzyl)phenyl)-3-(3-(1,5-dimethyl-4-oxido-2-oxo-1,2-dihydropyridin-3-yl)ureido)propanoate]	> 6.70
Cc1cn(C)c(=O)c(NC(=O)NC(CC(=O)O)c2cccc(Cc3cccc(Cl)c3)c2)c1O (stereo not drawn) [Compound 1-25, sodium 3-(3-(3-chlorobenzyl)phenyl)-3-(3-(1,5-dimethyl-4-oxido-2-oxo-1,2-dihydropyridin-3-yl)ureido)propanoate]	> 6.70
Cc1cn(C)c(=O)c(NC(=O)NC(CC(=O)O)c2cccc(Cc3ccc(Cl)cc3)c2)c1O (stereo not drawn) [Compound 1-26, sodium 3-(3-(4-chlorobenzyl)phenyl)-3-(3-(1,5-dimethyl-4-oxido-2-oxo-1,2-dihydropyridin-3-yl)ureido)propanoate]	< 6.70
Cc1cn(C)c(=O)c(NC(=O)N[C@@H](CC(=O)O)c2ccc(Cc3ccccc3Cl)cc2)c1O [Compound 1-27, sodium (S)-3-(4-(2-chlorobenzyl)phenyl)-3-(3-(4-hydroxy-1,5-dimethyl-2-oxo-1,2-dihydropyridin-3-yl)ureido)propanoate]	< 6.70
Cc1ccccc1Cc1cccc([C@H](CC(=O)O)NC(=O)Nc2c(O)c(C)cn(C)c2=O)c1 [Compound 1-28, sodium (S)-3-(3-(1,5-dimethyl-4-oxido-2-oxo-1,2-dihydropyridin-3-yl)ureido)-3-(3-(2-methylbenzyl)phenyl)propanoate]	> 7.70
Cc1cccc(Cc2cccc([C@H](CC(=O)O)NC(=O)Nc3c(O)c(C)cn(C)c3=O)c2)c1 [Compound 1-29, sodium (S)-3-(3-(1,5-dimethyl-4-oxido-2-oxo-1,2-dihydropyridin-3-yl)ureido)-3-(3-(3-methylbenzyl)phenyl)propanoate]	> 6.70
Cc1ccc(Cc2cccc([C@H](CC(=O)O)NC(=O)Nc3c(O)c(C)cn(C)c3=O)c2)cc1 [Compound 1-30, sodium (S)-3-(3-(1,5-dimethyl-4-oxido-2-oxo-1,2-dihydropyridin-3-yl)ureido)-3-(3-(4-methylbenzyl)phenyl)propanoate]	> 6.70
COc1ccccc1Oc1ccc([C@H](CC(=O)O)NC(=O)Nc2c(O)cc(C)n(C)c2=O)cc1 [Compound 2-11, sodium (S)-3-(3-(1,6-dimethyl-4-oxido-2-oxo-1,2-dihydropyridin-3-yl)ureido)-3-(4-(2-methoxyphenoxy)phenyl)propanoate]	> 6.70
COc1cccc(Oc2ccc([C@H](CC(=O)O)NC(=O)Nc3c(O)cc(C)n(C)c3=O)cc2)c1 [Compound 2-12, sodium (S)-3-(3-(1,6-dimethyl-4-oxido-2-oxo-1,2-dihydropyridin-3-yl)ureido)-3-(4-(3-methoxyphenoxy)phenyl)propanoate]	> 6.70
Cc1ccccc1Cc1cccc([C@H](CC(=O)O)NC(=O)Nc2c(O)cc(C)n(C)c2=O)c1 [Compound 2-14, sodium (S)-3-(3-(1,6-dimethyl-4-oxido-2-oxo-1,2-dihydropyridin-3-yl)ureido)-3-(3-(2-methylbenzyl)phenyl)propanoate]	> 7.70
Cc1ccccc1Cc1ccc([C@H](CC(=O)O)NC(=O)Nc2c(O)cc(C)n(C)c2=O)s1 [Compound 2-15, sodium (S)-3-(3-(1,6-dimethyl-4-oxido-2-oxo-1,2-dihydropyridin-3-yl)ureido)-3-(5-(2-methylbenzyl)thiophen-2-yl)propanoate]	≥ 7.70
Cc1ccccc1C(F)(F)c1cccc([C@@H](CC(=O)O)NC(=O)Nc2c(O)ccn(C)c2=O)c1 [Compound 3-66, sodium (R)-3-(3-(difluoro(o-tolyl)methyl)phenyl)-3-(3-(1-methyl-4-oxido-2-oxo-1,2-dihydropyridin-3-yl)ureido)propanoate]	< 6.70
Cc1ccccc1Oc1cccc([C@H](CC(=O)O)NC(=O)Nc2c(O)ccn(C)c2=O)c1 [Compound 3-67, sodium (S)-3-(3-(1-methyl-4-oxido-2-oxo-1,2-dihydropyridin-3-yl)ureido)-3-(3-(o-tolyloxy)phenyl)propanoate]	> 7.70
COc1ccccc1Oc1cccc([C@H](CC(=O)O)NC(=O)Nc2c(O)ccn(C)c2=O)c1 [Compound 3-68, sodium (S)-3-(3-(2-methoxyphenoxy)phenyl)-3-(3-(1-methyl-4-oxido-2-oxo-1,2-dihydropyridin-3-yl)ureido)propanoate]	> 7.70

SMILES	pIC50
Cn1ccc(O)c(NC(=O)N[C@@H](CC(=O)O)c2cccc(Oc3ccccc3Cl)c2)c1=O [Compound 3-69, sodium (S)-3-(3-(2-chlorophenoxy)phenyl)-3-(3-(1-methyl-4-oxido-2-oxo-1,2-dihydropyridin-3-yl)ureido)propanoate]	> 7.70
Cc1ccc(F)cc1Cc1cccc([C@H](CC(=O)O)NC(=O)Nc2c(O)ccn(C)c2=O)c1 [Compound 3-70, sodium (S)-3-(3-(5-fluoro-2-methylbenzyl)phenyl)-3-(3-(1-methyl-4-oxido-2-oxo-1,2-dihydropyridin-3-yl)ureido)propanoate]	> 7.70
COc1ccccc1Oc1ccc([C@H](CC(=O)O)NC(=O)Nc2c(O)ccn(C)c2=O)cc1 [Compound 3-72, sodium (S)-3-(4-(2-methoxyphenoxy)phenyl)-3-(3-(1-methyl-4-oxido-2-oxo-1,2-dihydropyridin-3-yl)ureido)propanoate]	> 6.70
COc1cccc(Oc2ccc([C@H](CC(=O)O)NC(=O)Nc3c(O)ccn(C)c3=O)cc2)c1 [Compound 3-73, sodium (S)-3-(4-(3-methoxyphenoxy)phenyl)-3-(3-(1-methyl-4-oxido-2-oxo-1,2-dihydropyridin-3-yl)ureido)propanoate]	> 6.70
Cc1ccccc1Oc1ccc([C@H](CC(=O)O)NC(=O)Nc2c(O)ccn(C)c2=O)cc1 [Compound 3-74, sodium (S)-3-(3-(1-methyl-4-oxido-2-oxo-1,2-dihydropyridin-3-yl)ureido)-3-(4-(o-tolyloxy)phenyl)propanoate]	> 7.70
Cc1ccc(Oc2ccc([C@H](CC(=O)O)NC(=O)Nc3c(O)ccn(C)c3=O)cc2)cc1 [Compound 3-75, sodium (S)-3-(3-(1-methyl-4-oxido-2-oxo-1,2-dihydropyridin-3-yl)ureido)-3-(4-(p-tolyloxy)phenyl)propanoate]	> 6.70
Cn1ccc(O)c(NC(=O)N[C@@H](CC(=O)O)c2ccc(Cc3ccccc3)cc2)c1=O [Compound 3-76, sodium (S)-3-(4-benzylphenyl)-3-(3-(1-methyl-4-oxido-2-oxo-1,2-dihydropyridin-3-yl)ureido)propanoate]	> 7.70
Cc1ccccc1Cc1ccc([C@H](CC(=O)O)NC(=O)Nc2c(O)ccn(C)c2=O)cc1 [Compound 3-77, sodium (S)-3-(3-(1-methyl-4-oxido-2-oxo-1,2-dihydropyridin-3-yl)ureido)-3-(4-(2-methylbenzyl)phenyl)propanoate]	> 6.70
Cc1cccc(Cc2ccc([C@H](CC(=O)O)NC(=O)Nc3c(O)ccn(C)c3=O)cc2)c1 [Compound 3-78, sodium (S)-3-(3-(1-methyl-4-oxido-2-oxo-1,2-dihydropyridin-3-yl)ureido)-3-(4-(3-methylbenzyl)phenyl)propanoate]	< 6.70
Cc1ccc(Cc2ccc([C@H](CC(=O)O)NC(=O)Nc3c(O)ccn(C)c3=O)cc2)cc1 [Compound 3-79, sodium (S)-3-(3-(1-methyl-4-oxido-2-oxo-1,2-dihydropyridin-3-yl)ureido)-3-(4-(4-methylbenzyl)phenyl)propanoate]	< 6.70
CCc1ccccc1Cc1cccc([C@H](CC(=O)O)NC(=O)Nc2c(O)ccn(C)c2=O)c1 [Compound 3-80, sodium (S)-3-(3-(2-ethylbenzyl)phenyl)-3-(3-(1-methyl-4-oxido-2-oxo-1,2-dihydro-pyridin-3-yl)ureido)propanoate]	> 7.70
Cc1ccccc1Cc1cccc([C@H](CC(=O)O)NC(=O)Nc2c(O)ccn(C)c2=O)c1 [Compound 3-81, sodium (S)-3-(3-(1-methyl-4-oxido-2-oxo-1,2-dihydropyridin-3-yl)ureido)-3-(3-(2-methylbenzyl)phenyl)propanoate]	> 7.70
Cc1ccc(Cc2cccc([C@H](CC(=O)O)NC(=O)Nc3c(O)ccn(C)c3=O)c2)cc1 [Compound 3-82, sodium (S)-3-(3-(1-methyl-4-oxido-2-oxo-1,2-dihydropyridin-3-yl)ureido)-3-(3-(4-methylbenzyl)phenyl)propanoate]	> 7.70
Cc1cccc(Cc2cccc([C@H](CC(=O)O)NC(=O)Nc3c(O)ccn(C)c3=O)c2)c1 [Compound 3-83, sodium (S)-3-(3-(1-methyl-4-oxido-2-oxo-1,2-dihydropyridin-3-yl)ureido)-3-(3-(3-methylbenzyl)phenyl)propanoate]	> 6.70
Cc1cccc(Oc2cccc([C@H](CC(=O)O)NC(=O)Nc3c(O)ccn(C)c3=O)c2)c1 [Compound 3-84, sodium (S)-3-(3-(1-methyl-4-oxido-2-oxo-1,2-dihydropyridin-3-yl)ureido)-3-(3-(m-tolyloxy)phenyl)propanoate]	> 7.70
Cc1ccc(Oc2cccc([C@H](CC(=O)O)NC(=O)Nc3c(O)ccn(C)c3=O)c2)cc1 [Compound 3-85, sodium (S)-3-(3-(1-methyl-4-oxido-2-oxo-1,2-dihydropyridin-3-yl)ureido)-3-(3-(p-tolyloxy)phenyl)propanoate]	> 7.70
